Earlier results, collected in US7713553B2, “Method of manufacture of a liquid pesticide containing copper and a liquid pesticide containing copper” (Genics Inc., priority 2001, dated 2010).

[Cu+2].[OH-].[OH-] [copper hydroxide]
solubility in water: almost insoluble
